Reference: ChEMBL document CHEMBL1201862, “PubChem BioAssay data set” (2004)
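48-hour exposure; five concentrations; linearly interpolated endpoints. GI50 is the concentration that inhibits growth by half.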 Activity calls are given as the source filed them. Cut-off read from the data, not from the text of the source: active = GI50 up to about 1.1 µM and inactive = higher.

Tests used:
Assay in all cases: DTP human tumour cell line panel, 48 h
[1] = test system: A498
[2] = test system: A549
[3] = test system: ACHN
[4] = test system: CCRF-CEM
[5] = test system: DU-145
[6] = test system: EKVX
[7] = test system: HCT-15
[8] = test system: HOP-62
[9] = test system: Hs-578T
[10] = test system: M14
[11] = test system: MCF7
[12] = test system: MDA-MB-231
[13] = test system: MDA-MB-435
[14] = test system: RPMI-8226
[15] = test system: SK-MEL-5
[16] = test system: TK-10
[17] = test system: U-251
[18] = test system: UACC-257
[19] = test system: SN12C

SMILES | GI50 [1] | GI50 [2] | GI50 [3] | GI50 [4] | GI50 [5] | GI50 [6] | GI50 [7] [µM] | GI50 [8] | GI50 [9] | GI50 [10] | GI50 [11] | GI50 [12] | GI50 [13] | GI50 [14] | GI50 [15] | GI50 [16] | GI50 [17] | GI50 [18] | GI50 [19]
Cc1ccc(C(=O)N/N=C(\N=N\c2cccc(C)c2)c2ccc(N(CCC#N)CCC#N)cc2C)cc1 | 73.3 µM (inactive) | > 100 µM (inactive) | > 100 µM (inactive) | 59.8 µM (inactive) | 73.1 µM (inactive) | 95.3 µM (inactive) | > 100 | > 100 µM (inactive) | 51.9 µM (inactive) | 89.5 µM (inactive) | 67.5 µM (inactive) | > 100 µM (inactive) | 26.4 µM (inactive) | 49.9 µM (inactive) | 32.2 µM (inactive) | > 100 µM (inactive) | 47 µM (inactive) | 58.9 µM (inactive) | –
CCN(CC)CCNc1ccc2nnn3c4ccc(OCCN(CC)CC)cc4c(=O)c1c23 | > 100 µM (inactive) | 44.9 µM (inactive) | 65.2 µM (inactive) | 16.4 µM (inactive) | 42.3 µM (inactive) | 71 µM (inactive) | 64.6 | 19.4 µM (inactive) | > 100 µM (inactive) | > 100 µM (inactive) | 33.6 µM (inactive) | 23.1 µM (inactive) | 49.5 µM (inactive) | 26.8 µM (inactive) | – | 28.5 µM (inactive) | 60.3 µM (inactive) | > 100 µM (inactive) | 32.4 µM (inactive)
C/C=C(\C)[C@@H](O)C(=O)O[C@@H]1CC(C(C)(C)O)[C@](C)(CCC(=O)OC)[C@H]2[C@H](OC(=O)[C@H](O)[C@H](C)CC)C[C@]3(C)C(=CC[C@H]3[C@H]3CO[C@H](C=C(C)C)C3)[C@]12C (some centres undefined) | 22.4 µM (inactive) | 20.9 µM (inactive) | 18.1 µM (inactive) | – | 29 µM (inactive) | 15.3 µM (inactive) | 19 | 35.3 µM (inactive) | 19.8 µM (inactive) | 18.2 µM (inactive) | 19.3 µM (inactive) | 19.6 µM (inactive) | 22.1 µM (inactive) | 15.3 µM (inactive) | 17.4 µM (inactive) | 24.2 µM (inactive) | 18.8 µM (inactive) | 20.7 µM (inactive) | –
NC(CCCCNc1ccn(C2OC(CO)C(O)C2O)c(=O)n1)C(=O)O (centres undefined) | > 100 µM (inactive) | 50.5 µM (inactive) | > 100 µM (inactive) | 35 µM (inactive) | > 100 µM (inactive) | > 100 µM (inactive) | 74.5 | – | > 100 µM (inactive) | 37.8 µM (inactive) | > 100 µM (inactive) | > 100 µM (inactive) | 88.1 µM (inactive) | > 100 µM (inactive) | > 100 µM (inactive) | > 100 µM (inactive) | 97.1 µM (inactive) | > 100 µM (inactive) | > 100 µM (inactive)
CCOC(=O)c1cnc(N(C)C)nc1SC(=N)N | > 100 µM (inactive) | > 100 µM (inactive) | > 100 µM (inactive) | – | > 100 µM (inactive) | > 100 µM (inactive) | > 100 | > 100 µM (inactive) | > 100 µM (inactive) | > 100 µM (inactive) | > 100 µM (inactive) | > 100 µM (inactive) | > 100 µM (inactive) | > 100 µM (inactive) | > 100 µM (inactive) | > 100 µM (inactive) | > 100 µM (inactive) | > 100 µM (inactive) | > 100 µM (inactive)
C[C@@H]1OC(=O)C[C@H]2CC(=O)N(CCC3CN(S(=O)(=O)C(F)(F)F)c4ccccc43)C[C@@H]21 (some centres undefined) | > 100 µM (inactive) | > 100 µM (inactive) | > 100 µM (inactive) | > 100 µM (inactive) | > 100 µM (inactive) | > 100 µM (inactive) | > 100 | > 100 µM (inactive) | 85.1 µM (inactive) | > 100 µM (inactive) | > 100 µM (inactive) | > 100 µM (inactive) | > 100 µM (inactive) | > 100 µM (inactive) | > 100 µM (inactive) | – | > 100 µM (inactive) | > 100 µM (inactive) | –
CCOC(C)O[C@H]1C(=O)OCC1(C)C (some centres undefined) | > 100 µM (inactive) | > 100 µM (inactive) | > 100 µM (inactive) | > 100 µM (inactive) | > 100 µM (inactive) | > 100 µM (inactive) | > 100 | > 100 µM (inactive) | > 100 µM (inactive) | > 100 µM (inactive) | > 100 µM (inactive) | > 100 µM (inactive) | > 100 µM (inactive) | > 100 µM (inactive) | > 100 µM (inactive) | > 100 µM (inactive) | > 100 µM (inactive) | > 100 µM (inactive) | –
